Laboratory results from PubChem BioAssay (NCI).
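Tested at 5 concentrations; 48 h exposure; 96-well plates; endpoints linearly interpolated, else capped at highest concentration. TGI is the concentration that stops growth completely.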

Columns and labels:
Experiment in all cases: NCI-60 cell line screen, 48 h
786-0 renal = tested on: 786-0 renal
A498 renal = tested on: A498 renal
A549 NSCLC = tested on: A549 NSCLC
ACHN renal = tested on: ACHN renal
BT-549 breast = tested on: BT-549 breast
CAKI-1 renal = tested on: CAKI-1 renal
CCRF-CEM leukemia = tested on: CCRF-CEM leukemia
COLO 205 colon = tested on: COLO 205 colon
DU-145 prostate = tested on: DU-145 prostate
EKVX NSCLC = tested on: EKVX NSCLC
HCC-2998 colon = tested on: HCC-2998 colon
HCT-116 colon = tested on: HCT-116 colon
HCT-15 colon = tested on: HCT-15 colon
HL-60(TB) leukemia = tested on: HL-60(TB) leukemia
HOP-62 NSCLC = tested on: HOP-62 NSCLC
HOP-92 NSCLC = tested on: HOP-92 NSCLC
HS 578T breast = tested on: HS 578T breast
HT29 colon = tested on: HT29 colon
IGROV1 ovarian = tested on: IGROV1 ovarian
K-562 leukemia = tested on: K-562 leukemia
KM12 colon = tested on: KM12 colon
LOX IMVI melanoma = tested on: LOX IMVI melanoma
M14 melanoma = tested on: M14 melanoma
MALME-3M melanoma = tested on: MALME-3M melanoma
MCF7 breast = tested on: MCF7 breast
MDA-MB-231 breast = tested on: MDA-MB-231 breast
MDA-MB-435 = tested on: MDA-MB-435
MDA-N = tested on: MDA-N
MOLT-4 leukemia = tested on: MOLT-4 leukemia
NCI-H226 lung = tested on: NCI-H226 lung
NCI-H23 lung = tested on: NCI-H23 lung
NCI-H460 lung = tested on: NCI-H460 lung
NCI-H522 lung = tested on: NCI-H522 lung
NCI/ADR-RES ovarian = tested on: NCI/ADR-RES ovarian
OVCAR-3 ovarian = tested on: OVCAR-3 ovarian
OVCAR-4 ovarian = tested on: OVCAR-4 ovarian
OVCAR-5 ovarian = tested on: OVCAR-5 ovarian
OVCAR-8 ovarian = tested on: OVCAR-8 ovarian
PC-3 prostate = tested on: PC-3 prostate
RPMI-8226 leukemia = tested on: RPMI-8226 leukemia
SF-295 CNS = tested on: SF-295 CNS
SF-539 CNS = tested on: SF-539 CNS
SK-MEL-2 melanoma = tested on: SK-MEL-2 melanoma
SK-MEL-28 melanoma = tested on: SK-MEL-28 melanoma
SK-MEL-5 melanoma = tested on: SK-MEL-5 melanoma
SK-OV-3 ovarian = tested on: SK-OV-3 ovarian
SN12C renal = tested on: SN12C renal
SNB-19 CNS = tested on: SNB-19 CNS
SNB-75 CNS = tested on: SNB-75 CNS
SR leukemia = tested on: SR leukemia
SW-620 colon = tested on: SW-620 colon
T-47D breast = tested on: T-47D breast
TK-10 renal = tested on: TK-10 renal
U251 CNS = tested on: U251 CNS
UACC-257 melanoma = tested on: UACC-257 melanoma
UACC-62 melanoma = tested on: UACC-62 melanoma
UO-31 renal = tested on: UO-31 renal

Measured: TGI

O=C(O)/C=N/NC(=S)NC1CCCCC1
> 100 µM: all assays above
